Experimental data as given in patent US20100152252A1, “Heterocyclyl-substituted-ethylamino-phenyl derivatives, their preparation and use as medicaments” (LABORATORIOS DEL DR. ESTEVE,S.A., priority 2006, published 2010).
Read-outs that look alike come from different tables or passages of the source.

Experiments:
[1] = molecular target: T1, Cloned Human Serotonin Receptor, Subtype 7 (h5HT7) (Homo sapiens, UniProt P34969); test: Radioligand binding, [125I]LSD, h5HT7 expressed in CHO cells
T1 construct: purchased PerkinElmer 6120512; host or cells: CHO cells
Description: Radioligand binding assays were performed using the Cloned Human Serotonin Receptor, Subtype 7 (h5HT7), expressed in CHO cells, coated on Flashplate (Basic FlashPlate Cat.: SMP200) from PerkinElmer (Cat.: 6120512). The protocol assay was essentially the recommended protocol in the Technical Data Sheet by PerkinEmer Life and Analytical Sciences. The Mass membrane protein/well was typically […] and the Receptor/well was about 9-10 fmoles. The Flashplate were let equilibrate at room temperature for one hour before the addition of the components of the assay mixture. The binding buffer was: 50 mM Tris-HCl, pH 7.4, containing 10 mM MgCl2, 0.5 mM EDTA and 0.5% BSA. The radioligand was [^125I]LSD at a final concentration of 0.82 nM. Nonspecific binding was determined with 50 μM of Clozapine. The assay volume was 25 μl. TopSeal-A were applied onto Flashplate microplates and they were incubated at room temperature for 240 minutes in darkness. The radioactivity were quantified by liquid scintillation spectrophotometry (Wallac 1450 Microbeta Trilux) with a count delay of 4 minutes prior to counting and a counting time of 30 seconds per well. Competition binding data were analyzed by using the LIGAND program (Munson and Rodbard, LIGAND: A versatile, computerized approach for characterization of ligand-binding systems. Anal. Biochem. 107: 220-239, 1980) and assays were performed in triplicate determinations for each point.

5HT7 receptor = 5HT7 receptor (Homo sapiens, UniProt P34969); test: Functionality assay on the 5HT7 receptor; assay type: biochemical
Text: Functionality assay on the 5HT7 receptor were done according to those known in the state of the art.

5-HT1 = 5-HT1 IC50; assay type: binding
[2] = [125I]LSD 0.82 nM, h5HT7 in CHO cells, read-out: 5-HT7 IC50

T1 sequence (P34969 whole entry): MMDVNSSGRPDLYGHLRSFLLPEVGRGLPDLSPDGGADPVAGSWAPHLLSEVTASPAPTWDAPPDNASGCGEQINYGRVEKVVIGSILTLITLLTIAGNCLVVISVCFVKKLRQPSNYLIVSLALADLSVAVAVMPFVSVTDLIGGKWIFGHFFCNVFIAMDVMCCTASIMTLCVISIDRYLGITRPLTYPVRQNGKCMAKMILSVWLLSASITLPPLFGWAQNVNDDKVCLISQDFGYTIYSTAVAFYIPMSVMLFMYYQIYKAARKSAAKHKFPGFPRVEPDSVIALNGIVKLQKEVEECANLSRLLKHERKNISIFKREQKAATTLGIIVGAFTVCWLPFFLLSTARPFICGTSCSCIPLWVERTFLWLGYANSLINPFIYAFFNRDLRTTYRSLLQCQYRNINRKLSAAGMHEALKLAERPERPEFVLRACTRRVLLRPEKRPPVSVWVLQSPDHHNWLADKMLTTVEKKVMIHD
Chain of 5HT7 receptor (P34969 whole entry): as above

SMILES	IC50 [1]	IC50 [1, 2]	other results
CNCCc1cccc(-c2cccnc2OC)c1 [Example 37, {2-[3-(2-Methoxy-pyridin-3-yl)-phenyl]-ethyl}-methyl-amine]	157 nM	–	–
CCN(CC)CCc1cccc(-c2ccccc2OC)c1 [Example 23, Diethyl-[2-(2′-methoxy-biphenyl-3-yl)-ethyl]-amine]	–	155 nM	–
Cc1noc(C)c1-c1cccc(CCN(C)C)c1 [Example 25, {2-[3-(3,5-Dimethyl-isoxazol-4-yl)-phenyl]-ethyl}-dimethyl-amine]	–	802 ± 159 nM	–
CCN(CC)CCc1cccc(-c2c(C)nn(C)c2C)c1 [Example 3, Diethyl-{2-[3-(1,3,5-trimethyl-1H-pyrazol-4-yl)-phenyl]-ethyl}-amine]	76.2 nM	–	–
CCN(CC)CCc1cccc(-c2c(OC)cccc2OC)c1 [Example 15, [2-(2′,6′-Dimethoxy-biphenyl-3-yl)-ethyl]-diethyl-amine]	–	302 nM	–
CCCN(CCC)CCc1cccc(-c2c(C)cccc2C)c1 [Example 12, [2-(2′,6′-Dimethyl-biphenyl-3-yl)-ethyl]-dipropyl-amine]	42.6 ± 21.1 nM	–	–
COc1cccc(OC)c1-c1cccc(CCN)c1 [Example 33, 2-(2′6′-Dimethoxy-biphenyl-3-yl)-ethylamine]	122 nM	–	–
CN(C)CCc1cccc(-c2c(Cl)cccc2Cl)c1 [Example 34]	5 ± 1.7 nM	–	–
CCCN(CCC)CCc1cccc(-c2ccccc2OC)c1 [Example 24, [2-(2′-Methoxy-biphenyl-3-yl)-ethyl]-dipropyl-amine]	84.9 nM	–	–
Cc1n[nH]c(C)c1-c1cccc(CCN(C)C)c1 [Example 5, {2-[3-(3,5-Dimethyl-1H-pyrazol-4-yl)-phenyl]-ethyl}-dimethyl-amine]	–	129 ± 16.8 nM	–
COc1cccc(Cl)c1-c1cccc(CCN(C)C)c1 [Example 38, [2-(6′-Chloro-2′-methoxy-biphenyl-3-yl)-ethyl]-dimethyl-amine]	24 ± 2.3 nM	–	–
CCCN(CCC)CCc1cccc(-c2c(C)noc2C)c1 [Example 28, {2-[3-(3,5-Dimethyl-isoxazol-4-yl)-phenyl]-ethyl}-dipropyl-amine]	–	602 nM	–
CCN(CC)CCc1cccc(-c2cnn(C)c2)c1 [Example 19, Diethyl-{2-[3-(1-methyl-1H-pyrazol-4-yl)-phenyl]-ethyl}-amine]	–	753 nM	–
Cc1nn(C)c(C)c1-c1cccc(CCN(C)C)c1 [Example 1, Dimethyl-{2-[3-(1,3,5-trimethyl-1H-pyrazol-4-yl)-phenyl]-ethyl}-amine]	6.1 ± 0.7 nM	–	EC50 (5HT7 receptor): 25.5 ± 2 nM; Emax (5HT7 receptor): 94%; IC50 (5-HT1): > 1000 nM
CCCN(CCC)CCc1cccc(-c2c(C)nn(C)c2C)c1 [Example 4, Dipropyl-{2-[3-(1,3,5-trimethyl-1H-pyrazol-4-yl)-phenyl]-ethyl}-amine]	56.9 ± 17.9 nM	–	–
CCN(CC)CCc1cccc(-c2c(C)cccc2C)c1 [Example 11, [2-(2′,6′-Dimethyl-biphenyl-3-yl)-ethyl]-diethyl-amine]	43.5 ± 15.9 nM	–	–
CCCN(CCC)CCc1cccc(-c2c(OC)cccc2OC)c1 [Example 16, [2-(2′,6′-Dimethoxy-biphenyl-3-yl)-ethyl]-dipropyl-amine]	–	118 ± 45.9 nM	–
COc1ncccc1-c1cccc(CCN(C)C)c1 [Example 36, {2-[3-(2-Methoxy-pyridin-3-yl)-phenyl]-ethyl}-dimethyl-amine]	303 nM	–	–
Cc1cccc(C)c1-c1cccc(CCN(C)C)c1 [Example 9, [2-(2′,6′-Dimethyl-biphenyl-3-yl)-ethyl]-dimethyl-amine]	10.1 ± 0.8 nM	–	–
CNCCc1cccc(-c2c(Cl)cccc2OC)c1 [Example 39, [2-(6′-Chloro-2′-methoxy-biphenyl-3-yl)-ethyl]-methyl-amine]	8.8 nM	–	–
COc1cccc(OC)c1-c1cccc(CCN(C)C)c1 [Example 13, [2-(2′,6′-Dimethoxy-biphenyl-3-yl)-ethyl]-dimethyl-amine]	19.7 ± 1.5 nM	–	–
Cc1nn(C)c(C)c1-c1cccc(CCN2CCCC2)c1 [Example 42, 1,3,5-Trimethyl-4-[3-(2-pyrrolidin-1-yl-ethyl)-phenyl]-1H-pyrazole]	–	139 ± 0.7 nM	–
CN(C)CCc1cccc(-c2c(F)cccc2F)c1 [Example 35, [2-(2′,6′-Difluoro-biphenyl-3-yl)-ethyl]-dimethyl-amine]	20.8 nM	–	–
COc1ccccc1-c1cccc(CCN(C)C)c1 [Example 21, [2-(2′-Methoxy-biphenyl-3-yl)-ethyl]-dimethyl-amine]	19.9 ± 1.7 nM	–	–
Cc1nn(C)c(C)c1-c1cccc(CCN)c1 [Example 29, 2-[3-(1,3,5-Trimethyl-1H-pyrazol-4-yl)-phenyl]-ethylamine]	4.5 ± 1.5 nM	–	–
